Melting point data for 24 compounds are collected here from patent US7183415B2, “Quinoline compound” (Takeda Pharmaceutical Company Limited, priority 2001, dated 2007).

In general, melting point refers to the temperature, or range, at which the solid turns liquid.

`CNC(=O)CCCC1CCN(Cc2cnc3c(C)c(NC(=O)c4ccc(-c5ccc(F)cc5)cc4)ccc3c2)CC1` [Example 207, 4′-fluoro-N-[8-methyl-3-({4-[4-(methylamino)-4-oxobutyl]-1-piperidinyl}methyl)-7-quinolinyl][1,1′-biphenyl]-4-carboxamide] showed a melting point of 210 to 212 °C.

For the compound `Cc1cccc(-c2ccc(C(=O)Nc3ccc4cc(CN5CCCC5)cnc4c3C)cc2)c1` [Example 109, 3′-methyl-N-[8-methyl-3-(1-pyrrolidinylmethyl)-7-quinolinyl][1,1′-biphenyl]-4-carboxamide], the melting point is 151 to 152 °C.

In turn, `Cc1cc2cc(CN3CCC(CC(=O)N(C)C)CC3)cnc2cc1NC(=O)c1ccc(-c2ccc(F)cc2)cc1` [Example 268, N-[3-({4-[2-(dimethylamino)-2-oxoethyl]-1-piperidinyl}methyl)-6-methyl-7-quinolinyl]-4′-fluoro[1,1′-biphenyl]-4-carboxamide] came in with a melting point of 219 °C.

Compound `COc1ccc(C2CCN(C(=O)Nc3ccc4cc(CN5CCCC5)cnc4c3)CC2)cc1` [Example 13, 4-(4-methoxyphenyl)-N-[3-(1-pyrrolidinylmethyl)-7-quinolinyl]-1-piperidine carboxamide] displayed a melting point of 241 to 243 °C.

The compound `Cc1c(NC(=O)c2ccc(-c3ccc(F)cc3)cc2F)ccc2cc(CN3CCCC3)cnc12` [Example 145, 3,4′-difluoro-N-[8-methyl-3-(1-pyrrolidinylmethyl)-7-quinolinyl][1,1′-biphenyl]-4-carboxamide] yielded a melting point of 176 to 178 °C.

As for `O=C(Nc1ccc2cc(CN3CCCC3)cnc2c1)c1ccc(-c2ccc(F)cc2)nc1` [Example 9, 6-(4-fluorophenyl)-N-[3-(1-pyrrolidinylmethyl)-7-quinolinyl]nicotinamide], the melting point fell in the range of 218 to 220 °C.

`Cc1cc2cc(CN3CCC(C(=O)N4CCCCC4)CC3)cnc2cc1NC(=O)c1ccc(-c2ccc(F)cc2)cc1` [Example 271, 4′-fluoro-N-(6-methyl-3-{[4-(1-piperidinylcarbonyl)-1-piperidinyl]methyl}-7-quinolinyl)[1,1′-biphenyl]-4-carboxamide] had a melting point of 250 °C.

Regarding `COc1ccc(-c2ccc(C(=O)Nc3ccc4cc(CN5CCCC5)cnc4c3F)c(F)c2)cc1` [Example 79, 3-fluoro-N-[8-fluoro-3-(1-pyrrolidinylmethyl)-7-quinolinyl]-4′-methoxy[1,1′-biphenyl]-4-carboxamide], the melting point lay within 182 to 183 °C.

For the compound `CCNC(=O)CCC1CCN(Cc2cnc3cc(NC(=O)c4ccc(-c5ccc(F)cc5)cc4)c(C)cc3c2)CC1` [Example 255, N-[3-({4-[3-(ethylamino)-3-oxopropyl]-1-piperidinyl}methyl)-6-methyl-7-quinolinyl]-4′-fluoro[1,1′-biphenyl]-4-carboxamide], the melting point lay in the range of 227 to 230 °C.

As for `Cc1ccc(-c2ccc(C(=O)Nc3ccc4cc(CN5CCCC5)cnc4c3F)cc2)cc1` [Example 74, N-[8-fluoro-3-(1-pyrrolidinylmethyl)-7-quinolinyl]-4′-methyl[1,1′-biphenyl]-4-carboxamide], the melting point lay in the range of 210 to 213 °C.

In turn, `Cc1cc2cc(CN3CCC(CCCC(=O)N4CCCCC4)CC3)cnc2cc1NC(=O)c1ccc(-c2ccc(F)cc2)cc1` [Example 259, 4′-fluoro-N-[6-methyl-3-({4-[4-oxo-4-(1-piperidinyl)butyl]-1-piperidinyl}methyl)-7-quinolinyl][1,1′-biphenyl]-4-carboxamide] showed a melting point of 179 °C.

In the case of `Cc1cc2cc(CN3CCCCCC3)cnc2cc1NC(=O)c1ccc(-c2ccccc2)cc1F` [Example 246, N-[3-(1-azepanylmethyl)-6-methyl-7-quinolinyl]-3-fluoro[1,1′-biphenyl]-4-carboxamide], the melting point was 151 °C.

`O=C(Nc1cc2ncc(CN3CCCC3)cc2cc1F)c1ccc(-c2ccc(Cl)cc2)cc1` [Example 51, 4′-chloro-N-[6-fluoro-3-(1-pyrrolidinylmethyl)-7-quinolinyl][1,1′-biphenyl]-4-carboxamide]: the melting point fell in the range of 218 to 220 °C.

For the compound `Cc1ccc(-c2ccc(C(=O)Nc3ccc4cc(CN5CCCCCC5)cnc4c3)cn2)cc1` [Example 33, N-[3-(1-azepanylmethyl)-7-quinolinyl]-6-(4-methylphenyl)nicotinamide], the melting point is 237 °C (dec.).

`O=C(Nc1ccc2cc(CN3CCCC3)cnc2c1)c1ccc(-c2ccc(Cl)cc2)cc1` [Example 6, 4′-chloro-N-[3-(1-pyrrolidinylmethyl)-7-quinolinyl][1,1′-biphenyl]-4-carboxamide] came in with a melting point of 217 to 220 °C.

In the case of `Cc1c(NC(=O)c2ccc(-c3ccc(Cl)cc3Cl)cc2F)ccc2cc(CN3CCCC3)cnc12` (hydrate or solvate) [Example 137, 2′,4′-dichloro-3-fluoro-N-[8-methyl-3-(1-pyrrolidinylmethyl)-7-quinolinyl][1,1′-biphenyl]-4-carboxamide], the melting point lay within 162 to 163 °C.

`Cc1c(NC(=O)c2ccc(-c3ccc4c(c3)OCO4)cc2)ccc2cc(CN3CCCC3)cnc12` (hydrate or solvate) [Example 105, 4-(1,3-benzodioxol-5-yl)-N-[8-methyl-3-(1-pyrrolidinylmethyl)-7-quinolinyl]benzamide] registered a melting point of 171 to 172 °C.

Turning to `Cc1cc2cc(CN3CCCC3)cnc2cc1NC(=O)c1ccc(-c2ccccc2Cl)cc1.Cl`, the melting point was 283 °C.

For `Cc1cc2cc(CN3CCC(CCC(=O)N(C)C)CC3)cnc2cc1NC(=O)c1ccc(-c2ccc(F)cc2)cc1` [Example 256, N-[3-({4-[3-(dimethylamino)-3-oxopropyl]-1-piperidinyl}methyl)-6-methyl-7-quinolinyl]-4′-fluoro[1,1′-biphenyl]-4-carboxamide], the melting point lay within 193 to 196 °C.

The compound `COc1ccc(-c2ccc(C(=O)Nc3ccc4cc(CN5CCCCCC5)cnc4c3C)cc2F)cc1` (hydrate or solvate) [Example 190, N-[3-(1-azepanylmethyl)-8-methyl-7-quinolinyl]-2-fluoro-4′-methoxy[1,1′-biphenyl]-4-carboxamide] yielded a melting point of 160 to 161 °C.

As for `Cc1ccc(C2CCN(C(=O)Nc3ccc4cc(CN5CCCCCC5)cnc4c3)CC2)cc1` [Example 35, N-[3-(1-azepanylmethyl)-7-quinolinyl]-4-(4-methylphenyl)-1-piperidine carboxamide], the melting point was 240 °C (dec.).

Regarding `O=C(Nc1ccc2cc(CN3CCCC3)cnc2c1)c1ccc(-c2ccccc2)cc1` [Example 2, N-[3-(1-pyrrolidinylmethyl)-7-quinolinyl][1,1′-biphenyl]-4-carboxamide], the melting point is 192 to 194 °C.

With `CCNC(=O)CCCC1CCN(Cc2cnc3cc(NC(=O)c4ccc(-c5ccc(F)cc5)cc4)ccc3c2)CC1` [Example 47, N-[3-({4-[4-(ethylamino)-4-oxobutyl]-1-piperidinyl}methyl)-7-quinolinyl]-4′-fluoro[1,1′-biphenyl]-4-carboxamide], the melting point is 209 to 213 °C.

The compound `Cc1c(NC(=O)c2ccc(-c3ccc4c(c3)CCCCO4)cc2)ccc2cc(CN3CCCC3)cnc12` [Example 116, N-[8-methyl-3-(1-pyrrolidinylmethyl)-7-quinolinyl]-4-(2,3,4,5-tetrahydro-1-benzoxepin-7-yl)benzamide] returned a melting point of 162 to 163 °C.
